Test results from ChEMBL document CHEMBL1671750, “Emergence and molecular characterization of extensively drug-resistant Mycobacterium tuberculosis clinical isolates from the Delhi Region in India” (2010).
≈ marks a conversion by molar mass, not a printed value. Calls of active or inactive are those of the source. The rule behind the calls is not given here.

Key:
[1] = system: Mycobacterium tuberculosis; experiment: Antimycobacterial activity against extensively drug-resistant Mycobacterium tuberculosis isolate 2403 obtained from sputum of patient at 1 ug/ml by Bactec MGIT960 modified proportion method; type: functional, organism-based
[2] = system: Mycobacterium tuberculosis; experiment: Antimycobacterial activity against extensively drug-resistant Mycobacterium tuberculosis isolate 2301 horboring rpoB S531L, katG R463L/E217G, gyrA D94N/S95T, rrs A1401G by CLSI method; type: functional
[3] = system: Mycobacterium tuberculosis; experiment: Antimycobacterial activity against extensively drug-resistant Mycobacterium tuberculosis isolate 2474 obtained from sputum of patient at 1 ug/ml by Bactec MGIT960 modified proportion method; type: functional, organism-based
[4] = system: Mycobacterium tuberculosis; experiment: Antimycobacterial activity against extensively drug-resistant Mycobacterium tuberculosis isolate 761 horboring rpoB S531L/Q510P, katG S315T/R463L, gyrA D94N/S95T, rrs G1484T by CLSI method; type: functional
[5] = system: Mycobacterium tuberculosis; experiment: Antimycobacterial activity against extensively drug-resistant Mycobacterium tuberculosis H37Rv by CLSI method; type: functional
[6] = system: Mycobacterium tuberculosis; experiment: Antimycobacterial activity against extensively drug-resistant Mycobacterium tuberculosis isolate 761 obtained from pus of patient at 1 ug/ml by Bactec MGIT960 modified proportion method; type: functional, organism-based
[7] = system: Mycobacterium tuberculosis; experiment: Antimycobacterial activity against extensively drug-resistant Mycobacterium tuberculosis isolate 2301 obtained from sputum of patient at 1 ug/ml by Bactec MGIT960 modified proportion method; type: functional, organism-based
[8] = system: Mycobacterium tuberculosis; experiment: Antimycobacterial activity against extensively drug-resistant Mycobacterium tuberculosis isolate 2474 horboring rpoB H526Y, katG D329A/R463L, gyrA D94G/S95T, rrs A1401G by CLSI method; type: functional
[9] = system: Mycobacterium tuberculosis; experiment: Antimycobacterial activity against extensively drug-resistant Mycobacterium tuberculosis isolate 625 horboring rpoB S531L/G566R/I569L, katG S315T/R463L, gyrA A90V/S95T, rrs A1401G by CLSI method; type: functional
[10] = system: Mycobacterium tuberculosis; experiment: Antimycobacterial activity against extensively drug-resistant Mycobacterium tuberculosis isolate 2911 horboring rpoB D516V, katG S315T/R463L, gyrA D94G/S95T/R128S/Y129C, rrs A1401G by CLSI method; type: functional
[11] = system: Mycobacterium tuberculosis; experiment: Antimycobacterial activity against extensively drug-resistant Mycobacterium tuberculosis isolate 2911 obtained from sputum of patient at 1 ug/ml by Bactec MGIT960 modified proportion method; type: functional, organism-based
[12] = system: Mycobacterium tuberculosis; experiment: Antimycobacterial activity against extensively drug-resistant Mycobacterium tuberculosis isolate 2911 obtained from sputum of patient at 2 ug/ml by Bactec MGIT960 modified proportion method; type: functional, organism-based
[13] = system: Mycobacterium tuberculosis; experiment: Antimycobacterial activity against extensively drug-resistant Mycobacterium tuberculosis isolate 2301 obtained from sputum of patient at 2 ug/ml by Bactec MGIT960 modified proportion method; type: functional, organism-based
[14] = system: Mycobacterium tuberculosis; experiment: Antimycobacterial activity against extensively drug-resistant Mycobacterium tuberculosis isolate 2403 obtained from sputum of patient at 2 ug/ml by Bactec MGIT960 modified proportion method; type: functional, organism-based
[15] = system: Mycobacterium tuberculosis; experiment: Antimycobacterial activity against extensively drug-resistant Mycobacterium tuberculosis isolate 625 obtained from sputum of patient at 2 ug/ml by Bactec MGIT960 modified proportion method; type: functional, organism-based
[16] = system: Mycobacterium tuberculosis; experiment: Antimycobacterial activity against extensively drug-resistant Mycobacterium tuberculosis isolate 761 obtained from pus of patient at 2 ug/ml by Bactec MGIT960 modified proportion method; type: functional, organism-based
[17] = system: Mycobacterium tuberculosis; experiment: Antimycobacterial activity against extensively drug-resistant Mycobacterium tuberculosis isolate 2474 obtained from sputum of patient at 2 ug/ml by Bactec MGIT960 modified proportion method; type: functional, organism-based
[18] = system: Mycobacterium tuberculosis; experiment: Antimycobacterial activity against extensively drug-resistant Mycobacterium tuberculosis isolate 2403 obtained from sputum of patient at 5 ug/ml by Bactec MGIT960 modified proportion method; type: functional, organism-based
[19] = system: Mycobacterium tuberculosis; experiment: Antimycobacterial activity against extensively drug-resistant Mycobacterium tuberculosis isolate 2474 obtained from sputum of patient at 5 ug/ml by Bactec MGIT960 modified proportion method; type: functional, organism-based
[20] = system: Mycobacterium tuberculosis; experiment: Antimycobacterial activity against extensively drug-resistant Mycobacterium tuberculosis isolate 2911 obtained from sputum of patient at 5 ug/ml by Bactec MGIT960 modified proportion method; type: functional, organism-based
[21] = system: Mycobacterium tuberculosis; experiment: Antimycobacterial activity against extensively drug-resistant Mycobacterium tuberculosis isolate 2301 obtained from sputum of patient at 5 ug/ml by Bactec MGIT960 modified proportion method; type: functional, organism-based
[22] = system: Mycobacterium tuberculosis; experiment: Antimycobacterial activity against extensively drug-resistant Mycobacterium tuberculosis isolate 761 obtained from pus of patient at 5 ug/ml by Bactec MGIT960 modified proportion method; type: functional, organism-based

| Compound | MIC [2] | MIC [4] | MIC [5] | MIC [8] | MIC [9] | MIC [10] | Activity [12] | Activity [13] | Activity [14] | Activity [15] | Activity [16] | other results |
| --- | --- | --- | --- | --- | --- | --- | --- | --- | --- | --- | --- | --- |
| CN[C@@H]1[C@H](O[C@H]2[C@H](O[C@H]3[C@H](O)[C@@H](O)[C@H](N=C(N)N)[C@@H](O)[C@@H]3N=C(N)N)O[C@@H](C)[C@]2(O)C=O)O[C@@H](CO)[C@H](O)[C@H]1O [STREPTOMYCIN] | 0.5 µg/mL (≈ 0.86 µM) | 0.125 µg/mL (≈ 0.215 µM) | 1 µg/mL (≈ 1.72 µM) | >16 µg/mL | 16 µg/mL (≈ 27.5 µM) | >16 µg/mL |  |  |  |  |  | Activity [1]: inactive; Activity [3]: inactive; Activity [6]: Active; Activity [7]: inactive; Activity [11]: inactive |
| COc1c(N2C[C@@H]3CCCN[C@@H]3C2)c(F)cc2c(=O)c(C(=O)O)cn(C3CC3)c12 |  |  |  |  |  |  | inactive | inactive | inactive | inactive | inactive |  |
| C[C@H]1COc2c(N3CCN(C)CC3)c(F)cc3c(=O)c(C(=O)O)cn1c23 |  |  |  |  |  |  | inactive | inactive | inactive |  | inactive |  |
| CC1COc2c(N3CCN(C)CC3)c(F)cc3c(=O)c(C(=O)O)cn1c23 (centres undefined) [OFLOXACIN] | 8 µg/mL (≈ 22.1 µM) | 16 µg/mL (≈ 44.3 µM) | 0.5 µg/mL (≈ 1.38 µM) | 8 µg/mL (≈ 22.1 µM) | 16 µg/mL (≈ 44.3 µM) | 8 µg/mL (≈ 22.1 µM) | inactive | inactive | inactive | inactive | inactive | Activity [17]: inactive |
| CCc1cc(C(N)=S)ccn1 [ETHIONAMIDE] | 2 µg/mL (≈ 12 µM) | 1 µg/mL (≈ 6.02 µM) | 0.5 µg/mL (≈ 3.01 µM) | >16 µg/mL | 4 µg/mL (≈ 24.1 µM) | 4 µg/mL (≈ 24.1 µM) |  |  |  |  |  |  |
| CC[C@@H](CO)NCCN[C@@H](CC)CO [ETHAMBUTOL] | 2 µg/mL (≈ 9.79 µM) | 8 µg/mL (≈ 39.2 µM) | 1 µg/mL (≈ 4.89 µM) | 4 µg/mL (≈ 19.6 µM) | 4 µg/mL (≈ 19.6 µM) | 4 µg/mL (≈ 19.6 µM) |  |  |  |  |  | Activity [18]: inactive; Activity [19]: inactive; Activity [20]: inactive; Activity [21]: inactive; Activity [22]: Active |
